Test results taken from US11517598B2 (priority 2016, dated 2022).

Assays:
[1] = system: VSVΔ51 in various human and mouse cancer cell lines; format: cell-based
[2] = system: VSVΔ51 in various human and mouse cancer cell lines resistant to VSVΔ51 infection; format: cell-based

## Sodium orthovanadate
[1]
  plaque size: substantially increased plaque size
[2]
  VSVΔ51 infection and viral titer: Comparable results
